Results from patent US20250228239A1, “MOLECULES HAVING PESTICIDAL UTILITY, AND INTERMEDIATES, COMPOSITIONS, AND PROCESSES, RELATED THERETO” (priority 2024, published 2025).

Key:
Format in all cases: in vivo
[1] = system: Cabbage Looper (Trichoplusia ni, TRIPNI); experiment: Bioassays on Cabbage Looper (CL), 128-well diet tray assay; settings: Trichoplusia ni; Cabbage Looper; rating class; read-out: CL
How it was run: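 Percent mortality, averaged across eight replicate wells, after second-instar larvae (1–5 per well) fed for five to seven days on diet dosed at 50 μg/cm^2. Compound was applied in acetone-water 90:10 and dried; trays kept vented at 25° C under 14:10 photoperiod.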

[2] = system: Beet Armyworm (Spodoptera exigua, LAPHEG); experiment: Bioassays on Beet Armyworm (BAW), 128-well diet tray assay; settings: Spodoptera exigua; Beet Armyworm; rating class; read-out: BAW
How it was run: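 Eight diet wells per compound were treated at 50 μg/cm^2 (acetone-water 90:10), dried, then infested with 1–5 second-instar larvae each. After five to seven days at 25 °C under 14:10 photoperiod, mortality was scored and averaged across wells.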

[3] = system: Yellow Fever Mosquito (Aedes aegypti, AEDSAE); settings: Yellow Fever Mosquito; rating class
How it was run: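 Compounds from 4000 ppm DMSO stocks were diluted in 90:10 water/acetone and dispensed into wells, then infested with about 1-day-old larvae in liver-powder water. Covered plates were held at room temperature for 3 days and each well was scored for mortality against a rating scale; six replicate plates per compound.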

| SMILES | pest or weed control at 50 µg/cm2 [1] | pest or weed control at 50 µg/cm2 [2] | YFM [3] |
| --- | --- | --- | --- |
| O=C(Nc1c(F)ccc(NC(=O)C(F)F)c1F)c1cc(NC(=O)[C@H]2[C@H](c3cc(Cl)c(Cl)c(Cl)c3)C2(Cl)Cl)ccc1F [F1555, 5-((1R,3R)-2,2-Dichloro-3-(3,4,5-trichlorophenyl)cyclopropane-1-carboxamido)-N-(3-(2,2-difluoroacetamido)-2,6-difluorophenyl)-2-fluorobenzamide] | 50 to 100% | 50 to 100% | A (80–100) |
| CC(=O)Nc1ccc(F)c(NC(=O)c2cc(NC(=O)[C@H]3[C@H](c4cc(Cl)c(Cl)c(Cl)c4)C3(Cl)Cl)ccc2F)c1F [F1556, N-(3-Acetamido-2,6-difluorophenyl)-5-((1R,3R)-2,2-dichloro-3-(3,4,5-trichlorophenyl)cyclopropane-1-carboxamido)-2-fluorobenzamide] | 50 to 100% | 50 to 100% | A (80–100) |
| O=C(Nc1cc(NC(=O)C(F)(F)F)c(F)cc1F)c1cc(NC(=O)[C@H]2[C@H](c3ccc(F)c(C(F)(F)F)c3)C2(Cl)Cl)ccc1F [F1557, 5-((1R,3R)-2,2-Dichloro-3-(4-fluoro-3-(trifluoromethyl)phenyl)cyclopropane-1-carboxamido)-N-(2,4-difluoro-5-(2,2,2-trifluoroacetamido)phenyl)-2-fluorobenzamide] | 50 to 100% | 50 to 100% | A (80–100) |
| O=C(Nc1cc(NC(=O)C(F)F)c(F)cc1F)c1cc(NC(=O)[C@H]2[C@H](c3ccc(F)c(C(F)(F)F)c3)C2(Cl)Cl)ccc1F [F1558, 5-((1R,3R)-2,2-Dichloro-3-(4-fluoro-3-(trifluoromethyl)phenyl)cyclopropane-1-carboxamido)-N-(5-(2,2-difluoroacetamido)-2,4-difluorophenyl)-2-fluorobenzamide] | 50 to 100% | 50 to 100% | A (80–100) |
| CC(=O)Nc1cc(NC(=O)c2cc(NC(=O)[C@H]3[C@H](c4ccc(F)c(C(F)(F)F)c4)C3(Cl)Cl)ccc2F)c(F)cc1F [F1559, N-(5-Acetamido-2,4-difluorophenyl)-5-((1R,3R)-2,2-dichloro-3-(4-fluoro-3-(trifluoromethyl)phenyl)cyclopropane-1-carboxamido)-2-fluorobenzamide] | 50 to 100% | 50 to 100% | A (80–100) |
| O=C(Nc1c(F)ccc(NC(=O)C(F)(F)F)c1F)c1cc(NC(=O)[C@H]2[C@H](c3ccc(F)c(C(F)(F)F)c3)C2(Cl)Cl)ccc1F [F1560, 5-((1R,3R)-2,2-Dichloro-3-(4-fluoro-3-(trifluoromethyl)phenyl)cyclopropane-1-carboxamido)-N-(2,6-difluoro-3-(2,2,2-trifluoroacetamido)phenyl)-2-fluorobenzamide] | 50 to 100% | 50 to 100% | A (80–100) |
| O=C(Nc1c(F)ccc(NC(=O)C(F)F)c1F)c1cc(NC(=O)[C@H]2[C@H](c3ccc(F)c(C(F)(F)F)c3)C2(Cl)Cl)ccc1F [F1561, 5-((1R,3R)-2,2-Dichloro-3-(4-fluoro-3-(trifluoromethyl)phenyl)cyclopropane-1-carboxamido)-N-(3-(2,2-difluoroacetamido)-2,6-difluorophenyl)-2-fluorobenzamide] | 50 to 100% | 50 to 100% | A (80–100) |
| CC(=O)Nc1ccc(F)c(NC(=O)c2cc(NC(=O)[C@H]3[C@H](c4ccc(F)c(C(F)(F)F)c4)C3(Cl)Cl)ccc2F)c1F [F1562, N-(3-Acetamido-2,6-difluorophenyl)-5-((1R,3R)-2,2-dichloro-3-(4-fluoro-3-(trifluoromethyl)phenyl)cyclopropane-1-carboxamido)-2-fluorobenzamide] | 50 to 100% | 50 to 100% | A (80–100) |
| CCOC(C)(C)C(=O)Nc1c(F)ccc(NC(=O)c2cc(NC(=O)[C@H]3[C@H](c4ccc(F)c(C(F)(F)F)c4)C3(Cl)Cl)ccc2Cl)c1F [F1603, 2-Chloro-5-((1R,3R)-2,2-dichloro-3-(4-fluoro-3-(trifluoromethyl)phenyl)cyclopropane-1-carboxamido)-N-(3-(2-ethoxy-2-methylpropanamido)-2,4-difluorophenyl)benzamide] | 50 to 100% | 50 to 100% | A (80–100) |
| CCOC(C)C(=O)Nc1c(F)ccc(NC(=O)c2cc(NC(=O)[C@H]3[C@H](c4ccc(Cl)c(Cl)c4)C3(Cl)Cl)ccc2Cl)c1F (stereo partly drawn) [F1604, 2-Chloro-5-((1R,3R)-2,2-dichloro-3-(3,4-dichlorophenyl)cyclopropane-1-carboxamido)-N-(3-(2-ethoxypropanamido)-2,4-difluorophenyl)benzamide] | 50 to 100% | 50 to 100% | A (80–100) |
| CCOC(C)(C)C(=O)Nc1c(F)ccc(NC(=O)c2cc(NC(=O)[C@H]3[C@H](c4ccc(Cl)c(Cl)c4)C3(Cl)Cl)ccc2Cl)c1F [F1605, 2-Chloro-5-((1R,3R)-2,2-dichloro-3-(3,4-dichlorophenyl)cyclopropane-1-carboxamido)-N-(3-(2-ethoxy-2-methylpropanamido)-2,4-difluorophenyl)benzamide] | 50 to 100% | 50 to 100% | A (80–100) |
| CC(C)C(=O)Nc1c(F)ccc(NC(=O)c2cc(NC(=O)[C@H]3[C@H](c4ccc(Cl)c(Cl)c4)C3(Cl)Cl)ccc2Cl)c1F [F1606, 2-Chloro-5-((1R,3R)-2,2-dichloro-3-(3,4-dichlorophenyl)cyclopropane-1-carboxamido)-N-(2,4-difluoro-3-isobutyramidophenyl)benzamide] | 50 to 100% | 50 to 100% | A (80–100) |
| O=C(Nc1ccc(F)c(NC(=O)C(C(F)(F)F)C(F)(F)F)c1F)c1cc(NC(=O)[C@H]2[C@H](c3ccc(Cl)c(Cl)c3)C2(Cl)Cl)ccc1Cl [F1607, 2-Chloro-5-((1R,3R)-2,2-dichloro-3-(3,4-dichlorophenyl)cyclopropane-1-carboxamido)-N-(2,4-difluoro-3-(3,3,3-trifluoro-2-(trifluoromethyl)propanamido)phenyl)benzamide] | 50 to 100% | 50 to 100% | A (80–100) |
| O=C(Nc1ccc(F)c(NC(=O)C2CC2(F)F)c1F)c1cc(NC(=O)[C@H]2[C@H](c3ccc(Cl)c(Cl)c3)C2(Cl)Cl)ccc1Cl (stereo partly drawn) [F1608, 2-Chloro-5-((1R,3R)-2,2-dichloro-3-(3,4-dichlorophenyl)cyclopropane-1-carboxamido)-N-(3-(2,2-difluorocyclopropane-1-carboxamido)-2,4-difluorophenyl)benzamide] | 50 to 100% | 50 to 100% | A (80–100) |
| O=C(Nc1ccc(F)c(NC(=O)C2CCOC2)c1F)c1cc(NC(=O)[C@H]2[C@H](c3ccc(Cl)c(Cl)c3)C2(Cl)Cl)ccc1Cl (stereo partly drawn) [F1610, N-(3-(2-Chloro-5-((1R,3R)-2,2-dichloro-3-(3,4-dichlorophenyl)cyclopropane-1-carboxamido)benzamido)-2,6-difluorophenyl)tetrahydrofuran-3-carboxamide] | 50 to 100% | 50 to 100% | A (80–100) |
| CN(C(=O)C(F)(F)F)c1c(F)ccc(NC(=O)c2cc(NC(=O)[C@H]3[C@H](c4ccc(Cl)c(Cl)c4)C3(Cl)Cl)ccc2Cl)c1F [F1614, 2-Chloro-5-((1R,3R)-2,2-dichloro-3-(3,4-dichlorophenyl)cyclopropane-1-carboxamido)-N-(2,4-difluoro-3-(2,2,2-trifluoro-N-methylacetamido)phenyl)benzamide] | 50 to 100% | 50 to 100% | A (80–100) |
| CCC1CCC(C(=O)Nc2c(F)ccc(NC(=O)c3cc(NC(=O)[C@H]4[C@H](c5ccc(F)c(C(F)(F)F)c5)C4(Cl)Cl)ccc3Cl)c2F)O1 (stereo partly drawn) [F1626, N-(3-(2-Chloro-5-((1R,3R)-2,2-dichloro-3-(4-fluoro-3-(trifluoromethyl)phenyl)cyclopropane-1-carboxamido)benzamido)-2,6-difluorophenyl)-5-ethyltetrahydrofuran-2-carboxamide] | 50 to 100% | 50 to 100% | A (80–100) |
| CC(=O)Nc1c(F)cc(F)c(NC(=O)c2cc(NC(=O)[C@H]3[C@H](c4cc(Cl)cc(Cl)c4)C3(Cl)Cl)ccc2Cl)c1F [F1628, N-(3-Acetamido-2,4,6-trifluorophenyl)-2-chloro-5-((1R,3R)-2,2-dichloro-3-(3,5-dichlorophenyl)cyclopropane-1-carboxamido)benzamide] | 50 to 100% | 50 to 100% | A (80–100) |
| CC(=O)Nc1c(F)cc(F)c(NC(=O)c2cc(NC(=O)[C@H]3[C@H](c4ccc(Cl)c(Cl)c4)C3(Cl)Cl)ccc2Cl)c1F [F1629, N-(3-Acetamido-2,4,6-trifluorophenyl)-2-chloro-5-((1R,3R)-2,2-dichloro-3-(3,4-dichlorophenyl)cyclopropane-1-carboxamido)benzamide] | 50 to 100% | 50 to 100% | B (More than 0 – Less than 80) |
